Results taken from US11787799B2 (priority 2015, dated 2023).

Tests used:
[1] = test system: Coxsackievirus B1; experiment: microbe, parasite or virus in culture; type: cell-based; conditions: read-out: EC50 CVB1
[2] = test system: Enterovirus 71; experiment: microbe, parasite or virus in culture; type: cell-based; conditions: read-out: EC50 EV71
[3] = test system: Echovirus 9; experiment: microbe, parasite or virus in culture; type: cell-based; conditions: read-out: EC50 ECHO09
[4] = test system: HeLa-RW cells
[5] = test system: Coxsackievirus B3-H3; experiment: microbe, parasite or virus in culture; type: cell-based; conditions: read-out: EC50 CVB3-H3
[6] = test system: Poliovirus 3; experiment: microbe, parasite or virus in culture; type: cell-based; conditions: read-out: EC50 PV3
[7] = test system: Coxsackievirus B4; experiment: microbe, parasite or virus in culture; type: cell-based; conditions: read-out: EC50 CVB4
[8] = test system: Coxsackievirus B2; experiment: microbe, parasite or virus in culture; type: cell-based; conditions: read-out: EC50 CVB2
[9] = test system: Coxsackievirus B5; experiment: microbe, parasite or virus in culture; type: cell-based; conditions: read-out: EC50 CVB5
[10] = test system: RD cells
[11] = test system: Enterovirus D68/Fermon; experiment: Antiviral assay, Enterovirus D68 strain Fermon in RD cells; type: cell-based
[12] = test system: Echovirus 11; experiment: microbe, parasite or virus in culture; type: cell-based; conditions: read-out: EC50 ECHO11
[13] = test system: LLC cells
[14] = test system: Poliovirus 1; experiment: microbe, parasite or virus in culture; type: cell-based; conditions: read-out: EC50 PV1
[15] = test system: Enterovirus D68/US/Mo/14-18949; experiment: Antiviral assay, Enterovirus D68 strain US/Mo/14-18949 in RD cells; type: cell-based
[16] = test system: Enterovirus D68/US/KY/14-18953; experiment: Antiviral assay, Enterovirus D68 strain US/KY/14-18953 in RD cells; type: cell-based
[17] = test system: Echovirus 6; experiment: microbe, parasite or virus in culture; type: cell-based; conditions: read-out: EC50 ECHO06
[18] = test system: Coxsackievirus A9; experiment: microbe, parasite or virus in culture; type: cell-based; conditions: read-out: EC50 COX A9
[19] = test system: Echovirus 7; experiment: microbe, parasite or virus in culture; type: cell-based; conditions: read-out: EC50 ECHO07

SMILES | EC50 [1] | EC50 [2] | EC50 [3] | CC50 [4] | EC50 [5] | EC50 [6] | EC50 [7] | EC50 [8] | EC50 [9] | CC50 [10] | EC50 [11] | EC50 [12] | CC50 [13] | EC50 [14] | EC50 [15] | EC50 [16] | EC50 [17] | EC50 [18] | EC50 [19]
CC(C)n1ncc2c(C(=O)Nc3ccncn3)cc(-c3ccsc3)nc21 [JX-059] | 1200 nM | 800 nM | 400 nM | > 200000 nM | 1200 nM | > 10000 nM | 1200 nM | 1200 nM | 1200 nM | 75000 nM | 690 ± 90 nM | 1200 nM | > 200000 nM | > 10000 nM | 570 ± 220 nM | 870 ± 310 nM |  |  | 
CC(C)n1ncc2c(C(=O)Nc3ccccc3F)cc(-c3ccncc3)nc21 [JX-003] |  | > 10000 nM |  | 37500 nM | 5100 ± 100 nM | > 25000 nM |  |  |  |  |  | 5300 nM | 45000 nM | > 25000 nM |  |  | 9200 ± 3200 nM | 7000 ± 800 nM | 
CC(C)n1ncc2c(C(=O)Nc3ccccc3F)cc(-c3cncs3)nc21 [JX-010] |  | 3700 ± 200 nM |  | > 200000 nM | 3300 ± 1400 nM | > 25000 nM |  |  |  |  |  | 3200 nM | 100000 nM | > 25000 nM |  |  | 4200 ± 300 nM | 3100 nM | 
CC(C)n1ncc2c(C(=O)Nc3ncccn3)cc(-c3ccsc3)nc21 [JX-058] | 1200 nM | 1200 nM | 600 nM | 40000 nM | 1200 nM | > 10000 nM | 1200 nM | 1200 nM | 1200 nM |  |  | 1300 nM | 50000 nM | > 10000 nM |  |  |  |  | 
CC(C)n1ncc2c(C(=O)Nc3ccccc3F)cc(-c3cccnc3)nc21 [JX-005] |  | > 10000 nM |  | 37500 nM | 7000 ± 2400 nM | > 25000 nM |  |  |  |  |  | 4500 nM | 50000 nM | > 25000 nM |  |  | 9000 nM | 7800 ± 2600 nM | 
CC(C)n1ncc2c(C(=O)Nc3ccc(S(C)(=O)=O)cc3)cc(-c3cccs3)nc21 [JX-047] | 600 nM | 500 ± 100 nM |  | 200000 nM | 600 nM | > 10000 nM | 600 nM | 600 nM | 600 nM | 75000 nM | 300 nM |  | 50000 nM | > 10000 nM | 160 ± 40 nM | 300 nM | 300 nM | 500 nM | 800 nM
CC(C)n1ncc2c(C(=O)Nc3cc(S(N)(=O)=O)ccc3F)cc(-c3cccs3)nc21 [JX-068] | 600 nM | 500 nM | 200 nM | 18000 nM | 600 nM | 6250 nM | 500 nM | 500 nM | 500 nM | 25000 nM | 50 nM |  | 25000 nM | 6250 nM | 50 ± 10 nM | 110 ± 10 nM |  | 600 nM | 
CC(C)n1ncc2c(C(=O)Nc3cccc(C(N)=O)c3)cc(-c3cccs3)nc21 [JX-064] | 600 nM | 500 nM | 200 nM | 18000 nM | 700 ± 100 nM | 6250 nM | 600 nM | 600 nM | 600 nM | 25000 nM |  |  | 20000 nM | 6250 nM | 50 nM | 170 nM |  | 600 nM | 
CC(C)n1ncc2c(C(=O)Nc3ccc(F)c(F)c3)cc(-c3cccs3)nc21 [JX-015] | 2300 nM |  | 600 nM | > 200000 nM | 1300 ± 100 nM | > 25000 nM | 3100 nM |  | 2300 nM |  |  |  | > 200000 nM | > 25000 nM |  |  | 1300 ± 100 nM | 1200 nM | 
CC(C)n1ncc2c(C(=O)Nc3c(F)cccc3F)cc(-c3cccs3)nc21 [JX-009] |  | 3400 ± 700 nM |  | > 200000 nM | 3200 ± 500 nM | > 25000 nM |  |  |  |  |  | 2800 nM | > 200000 nM | > 25000 nM |  |  | 4900 ± 300 nM | 4000 nM | 
CC(C)n1ncc2c(C(=O)Nc3cncnc3)cc(-c3cccs3)nc21 [JX-066] | 500 nM | 400 nM | 200 nM | 18000 nM | 700 ± 200 nM | > 10000 nM | 500 nM | 500 nM | 500 nM | 25000 nM | 60 ± 20 nM |  | 20000 nM | > 10000 nM | 50 ± 10 nM | 150 nM |  | 400 nM | 
CC(C)n1ncc2c(C(=O)Nc3ccccc3F)cc(-c3ccccn3)nc21 [JX-004] |  | > 10000 nM |  | > 200000 nM | 6900 ± 700 nM | > 25000 nM |  |  |  |  |  | 3800 nM | 100000 nM | > 25000 nM |  |  | 7800 ± 1800 nM | 6100 ± 2200 nM | 
CC(C)n1ncc2c(C(=O)Nc3ccccn3)cc(-c3ccsc3)nc21 [JX-057] | 1200 nM | 800 nM | 400 nM | 18000 nM | 1200 nM | > 10000 nM | 1200 nM | 1200 nM | 1200 nM |  |  | 1200 nM | 25000 nM | > 10000 nM |  |  |  |  | 
CC(C)n1ncc2c(C(=O)Nc3ccccn3)cc(C3CC3)nc21 [JX-071] | 4700 nM | 4700 nM |  | 25000 nM | 4700 nM | > 10000 nM |  | 6250 nM |  | 37000 nM | 1200 nM |  | 25000 nM | > 10000 nM |  | 2300 nM |  |  | 9400 nM
CC(C)n1ncc2c(C(=O)Nc3cccc(F)c3)cc(-c3cccs3)nc21 [JX-021] | 2600 ± 500 nM | 2400 ± 800 nM | 1200 nM | > 200000 nM | 1300 ± 200 nM | > 25000 nM | 2600 ± 500 nM | 2600 ± 500 nM | 2300 nM |  |  |  | > 200000 nM | > 25000 nM |  |  | 1500 ± 500 nM | 1600 nM | 2900 nM
CC(C)n1ncc2c(C(=O)Nc3ccccc3F)cc(-c3ccccc3)nc21 [JX-002] |  | 5700 ± 1500 nM |  | 37500 nM | 4500 ± 1500 nM | > 25000 nM |  |  |  |  |  | 2900 nM | > 200000 nM | > 25000 nM |  |  | 4400 ± 600 nM | 5000 nM | 
